Data reported in PMC12118597 (Science Advances, 2025).
“And” between values parts separate entries of the source, which are not always exact repeats. Identical values can stand only once. Like-named read-outs stand apart in the source and are kept apart here.

Columns and labels:
[1] = biological target: T1, SARS-CoV-2 NSP3 macrodomain (Mac1) (Severe acute respiratory syndrome coronavirus 2, UniProt P0DTD1); assay: biochemical; assay type: binding
[2] = biological target: T1, SARS-CoV-2 NSP3 macrodomain (Mac1); assay type: binding; conditions: for 1-BDC (PanDDA run, DMSO background map): event 1; for 2*(1-BDC) (%): occupancy estimate from PanDDA; for Total number of conformations: ligand conformations modeled in the crystal structure
[3] = HTRF binding curve, SARS-CoV-2 Mac1
[4] = SARS CoV-2 macrodomain HTRF assay, dose-response
[5] = PanDDA background density correction, 1-BDC
[6] = crystal soak concentration 10 mM, DMSO background map
[7] = crystal soak concentration 10 mM, P43 crystals
[8] = ligand-bound crystal structure obtained (TRUE)
[9] = site occupied in X-ray crystal structure
[10] = PanDDA background density correction factor
[11] = crystal soak concentration 20 mM, DMSO background map
[12] = crystal soak concentration 20 mM, P43 crystals
[13] = refined crystallographic occupancy
[14] = soak concentration 10 mM, DMSO background map
[15] = soak concentration 10 mM, P43 crystals
[16] = crystal soak 10 mM, P43 crystal form
[17] = crystal soak 10 mM, DMSO background map

| Compound | Hill slope [1, 3] | Hill slope [1, 4] | 1-BDC [2, 5] | Refined ligand occupancy (%) ([2]; crystallographic refinement) | X-ray crystal structure [2, 8] | 2*(1-BDC) (%) [2] | Binding site [2, 9] | Occupancy difference (refined_occupancy - 2*(1-BDC)) [2] | 1-BDC [2, 10] | Total number of conformations [2] | Refined ligand occupancy (%) [2, 13] | PanDDA run, overall: Hit [2, 16] | PanDDA run, DMSO background map: 1-BDC [2, 17] | PanDDA run, DMSO background map: Hit [2, 17] | further results |
| --- | --- | --- | --- | --- | --- | --- | --- | --- | --- | --- | --- | --- | --- | --- | --- |
| Cc1c[nH]c2ncnc(NCC3(O)CCSCC3)c12 [AVI-4195, 4-(((5-methyl-7H-pyrrolo[2,3-d]pyrimidin-4-yl)amino)methyl)tetrahydro-2H-thiopyran-4-ol] | 1.2 | 1.2 | 0.14 | 28% | TRUE | 28% | Adenosine |  |  |  |  |  |  |  | Hit (PanDDA run, DMSO background map) [2, 6]: TRUE; Modeled (PanDDA run, DMSO background map) [2, 6]: TRUE; 1-BDC (PanDDA run, DMSO background map) [2, 6]: 0.14; Hit (PanDDA run, overall) [2, 7]: TRUE; Modeled (PanDDA run, overall) [2, 7]: TRUE; Modeling comment (PanDDA run, overall) [2, 7]: Duplicate, not modeled |
| OC1(CNc2ncnc3[nH]ccc23)COC2CC1C2 (stereo not drawn) [AVI-4313] | 1.2 | 1.2 | 0.19 | 38% | TRUE | 38% | Adenosine |  |  |  |  |  |  |  |  |
| OCC(Cc1ccccc1)Nc1ncnc2[nH]ccc12 (stereo not drawn) [AVI-313] | 1.2 |  |  |  |  | 36% |  | 14 | 0.18 | 2 | 50% |  |  |  | Hill slope ([1]; dose-response): 1.2; X-ray crystal structure ([2]; TRUE = ligand-bound crystal structure obtained (PDB code given)): TRUE; Hit (PanDDA run, DMSO background map) [2, 11]: TRUE; 1-BDC (PanDDA run, DMSO background map) [2, 11]: 0.25; Hit (PanDDA run, overall) [2, 12]: TRUE; Modeling comment (PanDDA run, overall) [2, 12]: Duplicate, not modeled; Binding site ([2]; site of Mac1 occupied in the X-ray crystal structure (Adenosine or Distal)): Adenosine; PanDDA run, DMSO background map: 1-BDC [2, 14]: 0.18; PanDDA run, DMSO background map: Hit [2, 14]: TRUE; PanDDA run, DMSO background map: Modeled [2, 14]: TRUE; PanDDA run, overall: Hit [2, 15]: TRUE; PanDDA run, overall: Modeled [2, 15]: TRUE |
| OCC1C2CCC(C2)N1c1ncnc2[nH]ccc12 (stereo not drawn) [AVI-3713] | 1.1 | 1.1 |  |  | TRUE | 58% | Adenosine | 0 | 0.29 | 1 | 58% | TRUE | 0.29 | TRUE |  |
| CN(CC1(O)CCOCC1)c1ncnc2[nH]ccc12 [AVI-4318] | 1.2 | 1.2 | 0.25 | 50% | TRUE | 50% | Adenosine |  |  |  |  |  |  |  |  |
| CCC(O)[C@H]1CCCN1c1ncnc2[nH]ccc12 (stereo partly drawn) [AVI-3666] | 1.3 | 1.3 |  |  | TRUE | 60% | Adenosine | 10 | 0.3 | 1 | 70% | TRUE | 0.3 | TRUE | PanDDA run, overall: Modeled [2, 16]: TRUE |
| OCC(Nc1ncnc2[nH]ccc12)C1CC1 (stereo not drawn) [AVI-3651] | 1.2 | 1.2 |  |  |  | 36% |  | 0 | 0.18 | 1 | 36% | TRUE | 0.18 | TRUE | X-ray crystal structure ([2]; TRUE = crystal structure with ligand obtained): TRUE; PanDDA run, overall: Modeled [2, 16]: TRUE; Binding site ([2]; site of ligand in X-ray crystal structure): Adenosine |
| C[C@H]1CC[C@H](CO)N(c2ncnc3[nH]ccc23)C1 [AVI-4063] | 1.1 | 1.1 | 0.16 | 50% | TRUE | 32% | Adenosine |  |  |  |  |  |  |  | Hit (PanDDA run, DMSO background map) [2, 17]: TRUE; 1-BDC (PanDDA run, DMSO background map) [2, 17]: 0.21 and 0.16; Hit (PanDDA run, overall) ([2]; crystal soak, 10 mM soak concentration, P43 crystal form): TRUE |
